Experiments:
[1] = biological target: 5-hydroxytryptamine receptor 4 (Cavia porcellus, UniProt O70528); format: cell membranes, Dunkin-Hartley, Striatum, Membrane; note: in other assays of this panel Not Active means under 50% inhibition at 10 µM
[2] = DRUGMATRIX: Potassium Channel [KATP] radioligand binding (ligand: [3H] Glyburide); format: cell membranes, Membrane; settings: hit-t15; Not Active = under 50% inhibition at 10 µM
[3] = biological target: Aldo-keto reductase family 1 member B1 (Rattus norvegicus, UniProt P07943); test: biochemical; format: tissue-based, Lens of camera-type eye;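 note: inhibition of aldose reductase enzyme activity, measured with DL-glyceraldehyde as the substrate; in other assays of this panel Not Active means under 50% inhibition at 10 µM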
[4] = biological target: Kappa-type opioid receptor (Homo sapiens, UniProt P41145); test: DRUGMATRIX: Opiate kappa (OP2, KOP) radioligand binding (ligand: [3H] Diprenorphine); format: cell membranes, HEK293, Membrane; settings: hek293; Not Active = under 50% inhibition at 10 µM
[5] = biological target: Tyrosine-protein kinase Lck (Homo sapiens, UniProt P06239); test: DRUGMATRIX: Protein Tyrosine Kinase, LCK enzyme inhibition (substrate: Poly(Glu:Tyr)); format: cell-based, Insect cells; settings: insect cells; Not Active = under 50% inhibition at 10 µM
[6] = biological target: T1, Alpha-2C adrenergic receptor (Homo sapiens, UniProt P18825); test: DRUGMATRIX: Adrenergic Alpha-2C radioligand binding (ligand: [3H] MK-912); format: cell membranes, Sf9, Membrane; settings: for Ki: read-out: Ki
T1 sequence (P18825 whole entry): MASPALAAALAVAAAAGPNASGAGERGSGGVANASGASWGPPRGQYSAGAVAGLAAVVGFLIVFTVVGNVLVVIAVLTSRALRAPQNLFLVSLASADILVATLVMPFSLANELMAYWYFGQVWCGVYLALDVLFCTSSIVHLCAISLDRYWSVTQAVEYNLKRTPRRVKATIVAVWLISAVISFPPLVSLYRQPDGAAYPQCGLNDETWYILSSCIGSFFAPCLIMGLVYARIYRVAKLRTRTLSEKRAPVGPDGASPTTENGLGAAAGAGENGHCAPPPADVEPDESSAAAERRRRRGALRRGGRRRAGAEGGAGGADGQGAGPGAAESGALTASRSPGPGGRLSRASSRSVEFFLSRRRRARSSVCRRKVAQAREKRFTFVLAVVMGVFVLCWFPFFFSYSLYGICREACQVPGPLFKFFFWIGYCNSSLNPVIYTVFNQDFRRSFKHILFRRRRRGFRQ

Tyrosine-protein kinase Lck, sequence (P06239 whole entry): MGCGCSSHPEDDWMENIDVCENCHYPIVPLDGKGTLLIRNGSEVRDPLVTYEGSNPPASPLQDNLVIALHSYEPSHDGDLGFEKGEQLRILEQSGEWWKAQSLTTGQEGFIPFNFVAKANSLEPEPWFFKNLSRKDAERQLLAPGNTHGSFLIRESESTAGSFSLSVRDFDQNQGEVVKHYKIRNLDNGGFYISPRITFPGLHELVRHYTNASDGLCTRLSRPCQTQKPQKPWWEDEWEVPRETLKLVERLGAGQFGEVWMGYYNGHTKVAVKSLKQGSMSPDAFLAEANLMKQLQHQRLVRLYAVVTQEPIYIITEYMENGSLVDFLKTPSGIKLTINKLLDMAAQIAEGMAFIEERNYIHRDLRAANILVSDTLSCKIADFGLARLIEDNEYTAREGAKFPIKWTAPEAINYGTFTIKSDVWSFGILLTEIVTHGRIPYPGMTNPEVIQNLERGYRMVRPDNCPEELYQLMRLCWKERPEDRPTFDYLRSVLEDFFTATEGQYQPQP
5-hydroxytryptamine receptor 4, sequence (O70528 whole entry): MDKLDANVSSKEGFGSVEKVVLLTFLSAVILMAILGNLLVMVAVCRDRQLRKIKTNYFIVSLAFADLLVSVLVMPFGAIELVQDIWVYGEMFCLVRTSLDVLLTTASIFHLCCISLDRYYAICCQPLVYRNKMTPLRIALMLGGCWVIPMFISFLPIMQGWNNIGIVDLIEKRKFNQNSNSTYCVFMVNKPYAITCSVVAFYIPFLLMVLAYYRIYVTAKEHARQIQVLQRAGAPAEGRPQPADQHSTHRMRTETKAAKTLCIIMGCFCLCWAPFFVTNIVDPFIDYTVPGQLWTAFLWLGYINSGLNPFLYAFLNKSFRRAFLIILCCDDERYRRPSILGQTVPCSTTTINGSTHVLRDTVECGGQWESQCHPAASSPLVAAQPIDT
Kappa-type opioid receptor, sequence (P41145 whole entry): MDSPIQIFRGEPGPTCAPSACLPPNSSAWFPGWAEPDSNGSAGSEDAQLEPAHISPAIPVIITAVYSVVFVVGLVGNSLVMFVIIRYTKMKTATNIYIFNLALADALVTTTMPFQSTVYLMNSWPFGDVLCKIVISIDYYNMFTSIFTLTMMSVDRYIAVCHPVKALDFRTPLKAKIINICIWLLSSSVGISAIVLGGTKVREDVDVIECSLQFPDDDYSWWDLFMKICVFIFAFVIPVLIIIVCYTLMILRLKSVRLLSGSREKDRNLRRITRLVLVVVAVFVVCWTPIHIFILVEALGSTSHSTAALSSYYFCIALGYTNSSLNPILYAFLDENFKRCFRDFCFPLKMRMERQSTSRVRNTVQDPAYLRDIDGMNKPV

Compound | IC50 [1] | IC50 [2] | Ki [2] | IC50 [3] | IC50 [4] | IC50 [5] | IC50 ([6]; sf9) | IC50 [6] | Ki [6] | IC50 ([6]; read-out: IC50)
O=c1[nH]c(=O)n([C@H]2C[C@H](O)[C@@H](CO)O2)cc1I [IDOXURIDINE] | Not Active | Not Active | Not Active | Not Active | Not Active | Not Active | Not Active |  |  | 
CC1Cc2ccccc2N1NC(=O)c1ccc(Cl)c(S(N)(=O)=O)c1 (stereo unspecified) [INDAPAMIDE] | Not Active | Not Active | Not Active | Not Active | Not Active | Not Active | Not Active |  |  | 
Nc1nc(N)nc(-c2cc(Cl)ccc2Cl)n1.O=C(O)/C=C\C(=O)O [IRSOGLADINE MALEATE] | Not Active | Not Active | Not Active | Not Active | Not Active | Not Active | Not Active |  |  | 
CCC(C)n1ncn(-c2ccc(N3CCN(c4ccc(OCC5COC(Cn6cncn6)(c6ccc(Cl)cc6Cl)O5)cc4)CC3)cc2)c1=O (stereo unspecified) [ITRACONAZOLE] | Not Active | Not Active | Not Active | Not Active | Not Active | Not Active | Not Active |  |  | 
CCCCN1CCCC[C@H]1C(=O)Nc1c(C)cccc1C [LEVOBUPIVACAINE] | Not Active | Not Active | Not Active | Not Active | Not Active | Not Active | Not Active |  |  | 
CCCCc1nc(Cl)c(CO)n1Cc1ccc(-c2ccccc2-c2nnn[nH]2)cc1 [LOSARTAN] | Not Active | Not Active | Not Active | Not Active | Not Active | Not Active | Not Active |  |  | 
Sc1ncnc2nc[nH]c12 [MERCAPTOPURINE ANHYDROUS] | Not Active | Not Active | Not Active | Not Active | Not Active | Not Active | Not Active |  |  | 
C[C@](N)(Cc1ccc(O)c(O)c1)C(=O)O [METHYLDOPA] | Not Active | Not Active | Not Active | Not Active | Not Active | Not Active | Not Active |  |  | 
C[C@]12CCC(=O)C=C1CC[C@@H]1[C@@H]2CC[C@@]2(C)[C@H]1CC[C@]2(C)O [METHYLTESTOSTERONE] | Not Active | Not Active | Not Active | Not Active | Not Active | Not Active | Not Active |  |  | 
Cc1ccccc1N1C(=O)c2cc(S(N)(=O)=O)c(Cl)cc2NC1C (stereo unspecified) [METOLAZONE] | Not Active | Not Active | Not Active | Not Active | Not Active | Not Active | Not Active |  |  | 
COCCc1ccc(OCC(O)CNC(C)C)cc1 (stereo unspecified) [METOPROLOL] | Not Active | Not Active | Not Active | Not Active | Not Active | Not Active | Not Active |  |  | 
CCn1cc(C(=O)O)c(=O)c2cc(F)c(N3CCNCC3)cc21 [NORFLOXACIN] | Not Active | Not Active | Not Active | Not Active | Not Active | Not Active | Not Active |  |  | 
NC1=NC(=O)C(c2ccccc2)O1 (stereo unspecified) [PEMOLINE] | Not Active | Not Active | Not Active | Not Active | Not Active | Not Active | Not Active |  |  | 
Nc1nc2c(ncn2CCC(CO)CO)c(=O)[nH]1 [PENCICLOVIR] | Not Active | Not Active | Not Active | Not Active | Not Active | Not Active | Not Active |  |  | 
C=C(C)C1(O)OC(=O)C=C1OC (stereo unspecified) [PENICILLIC ACID] | Not Active | Not Active | Not Active | Not Active | Not Active | Not Active | Not Active |  |  | 
CC1(C)S[C@@H]2[C@H](NC(=O)Cc3ccccc3)C(=O)N2[C@H]1C(=O)O [PENICILLIN G] | Not Active | Not Active | Not Active | Not Active | Not Active | Not Active | Not Active |  |  | 
CCCN1C[C@H](CSC)C[C@@H]2c3cccc4[nH]cc(c34)C[C@H]21 [PERGOLIDE] | Not Active | Not Active | Not Active | Not Active | Not Active | Not Active |  | 1410 nM | 205 nM | 
C1CCC(C(CC2CCCCN2)C2CCCCC2)CC1 (stereo unspecified) [PERHEXILINE] | Not Active | Not Active | Not Active | Not Active | Not Active | Not Active | Not Active |  |  | 
CCOc1ccc(NC(C)=O)cc1 [PHENACETIN] | Not Active | Not Active | Not Active | Not Active | Not Active | Not Active | Not Active |  |  | 
CNNCc1ccc(C(=O)NC(C)C)cc1 [PROCARBAZINE] | Not Active | Not Active | Not Active | Not Active | Not Active | Not Active | Not Active |  |  | 
CN(C)CCCN1c2ccccc2Sc2ccccc21 [PROMAZINE] | Not Active | Not Active | Not Active | Not Active | Not Active | Not Active |  |  | 37 nM | 253 nM
CC(O)CO (stereo unspecified) [PROPYLENE GLYCOL] | Not Active | Not Active | Not Active | Not Active | Not Active | Not Active | Not Active |  |  | 

— ChEMBL document CHEMBL1909046, “DrugMatrix in vitro pharmacology data”
